Test results as given in patent publication US9617538B2, “Heptamer-type small guide nucleic acids inducing apoptosis of human leukemia cells” (NIIGATA UNIVERSITY OF PHARMACY AND APPLIED LIFE SCIENCE, priority 2011, dated 2017).
{P} = phosphate

Tests used:
[1] = test system: human leukemia cell line HL60; assay: MTT assay, HL60; assay type: cell-based; conditions: sgRNA 1 μM, no delivery reagent, 72 hours (3 days), vs sgRNA non-administered group
Experimental: (§1) Each sgRNA (final concentration 1 μM) was added to a 96-well culture plate containing human cancer cell lines (1,000 cells/100 μl medium), without using a reagent for the delivery of the sgRNA into the cells. The cells were then cultured in a 37° C. CO2 incubator. […] Leukemia cells HL60, and myeloma cells KMM1 and RPMI-8226 were used as the human cancer cell lines, and the viable cell count was compared with that of an sgRNA non-administered group. As controls, each sgRNA was introduced to normal cells HEK293, and the same MTT assay was performed. • (1-3) Flow Cytometry Experiment

[2] = test system: human myeloma cell line KMM1; assay: MTT assay, KMM1; assay type: cell-based; conditions: sgRNA 1 μM, no delivery reagent, 72 hours (3 days), vs sgRNA non-administered group
Experimental: as §1

[3] = test system: human myeloma cell line RPMI-8226; assay: MTT assay, RPMI-8226; assay type: cell-based; conditions: sgRNA 1 μM, no delivery reagent, 72 hours (3 days), vs sgRNA non-administered group
Experimental: as §1

[4] = test system: human leukemia cells HL60; assay: Mouse xenograft experiment; assay type: in vivo, immunodeficient nude mice; conditions: HL60 subcutaneous xenograft; sgRNA 100 μM, 10 μl at transplantation site once daily for 5 days; difference of median survival time vs non-administered or ineffective-sgRNA group
Experimental: 2×10^6 human leukemia cells HL60 were subcutaneously transplanted into immunodeficient nude mice with an extracellular matrix. Each heptamer-type sgRNA (100 μM) was continuously administered to the transplantation site in a dose of 10 μl, once each day for 5 days, and the tumor volume was measured every day. The mice were euthanized upon the tumor volume reaching 1,500 mm^3. The experiment was conducted with groups of 6 to 8 mice, and the difference between the median value of the survival time of each sgRNA administered group and the median value of the survival time of the non-administered group (or a group administered with the ineffective heptamer-type sgRNA) was calculated as the extended lifetime due to the heptamer-type sgRNA. • (2) Results • (2-1) MTT Assay

Substance	MTT assay (Percentage reduction of viable cells) HL60 [1] [%]	MTT assay (Percentage reduction of viable cells) KMM1 [2] [%]	MTT assay (Percentage reduction of viable cells) RPMI [3] [%]	Mouse xenograft experiment (Extended lifetime) [4]
Hep1(HAGE): heptamer-type sgRNA 5′-UCUUUCC-3′, phosphorylated at the 5′ and 3′ ends, 2′-O-methylated (all 2'-O-methyl, 5' {P}, 3' {P}, backbone not given here)	91	61	5	–
Hep1(MYC): heptamer-type sgRNA 5′-CAGCUCG-3′, phosphorylated at the 5′ and 3′ ends, 2′-O-methylated (all 2'-O-methyl, 5' {P}, 3' {P}, backbone not given here)	90	56	16	–
Hep1(bcl-2): heptamer-type sgRNA 5′-GGGCCAG-3′, phosphorylated at the 5′ and 3′ ends, 2′-O-methylated (all 2'-O-methyl, 5' {P}, 3' {P}, backbone not given here)	88	0	18	(+22 days)
Hep2(HAGE): heptamer-type sgRNA 5′-UAUAUUU-3′, phosphorylated at the 5′ and 3′ ends, 2′-O-methylated (all 2'-O-methyl, 5' {P}, 3' {P}, backbone not given here)	94	72	5	–
Hep2(PKCb): heptamer-type sgRNA 5′-CCGGGGC-3′, phosphorylated at the 5′ and 3′ ends, 2′-O-methylated (all 2'-O-methyl, 5' {P}, 3' {P}, backbone not given here)	93	48	75	–
Hep2(bcl-2): heptamer-type sgRNA 5′-GGGGGCG-3′, phosphorylated at the 5′ and 3′ ends, 2′-O-methylated (all 2'-O-methyl, 5' {P}, 3' {P}, backbone not given here)	99	24	69	(+19 days)
Hep3(MYC): heptamer-type sgRNA 5′-GCAGCUC-3′, phosphorylated at the 5′ and 3′ ends, 2′-O-methylated (5' {P}, 3' {P}, sugars by position and backbone not given here; 2'-O-methylated)	90	67	2	–
Hep5(IRF4): heptamer-type sgRNA 5′-GGGUCCU-3′, phosphorylated at the 5′ and 3′ ends, 2′-O-methylated (5' {P}, 3' {P}, sugars by position and backbone not given here; 2'-O-methylated)	86	69	6	–
Hep5(MYC): heptamer-type sgRNA 5′-GCUGCUG-3′, phosphorylated at the 5′ and 3′ ends, 2′-O-methylated (5' {P}, 3' {P}, sugars by position and backbone not given here; 2'-O-methylated)	86	72	0	–
Hep5(PRAME): heptamer-type sgRNA 5′-GCUCUGC-3′, phosphorylated at the 5′ and 3′ ends, 2′-O-methylated (5' {P}, 3' {P}, sugars by position and backbone not given here; 2'-O-methylated)	94	17	54	–
Hep6(PRAME): heptamer-type sgRNA 5′-UCCAGGU-3′, phosphorylated at the 5′ and 3′ ends, 2′-O-methylated (all 2'-O-methyl, 5' {P}, 3' {P}, backbone not given here)	95	15	10	–
Hep7(WT1): heptamer-type sgRNA 5′-CUGCUUU-3′, phosphorylated at the 5′ and 3′ ends, 2′-O-methylated (5' {P}, 3' {P}, sugars by position and backbone not given here; 2'-O-methylated)	98	24	46	–
Hep8(FGFR3): heptamer-type sgRNA 5′-AUCUUCA-3′, phosphorylated at the 5′ and 3′ ends, 2′-O-methylated (all 2'-O-methyl, 5' {P}, 3' {P}, backbone not given here)	87	78	76	(+10 days)
Hep9(FGFR3): heptamer-type sgRNA 5′-CACCAGC-3′, phosphorylated at the 5′ and 3′ ends, 2′-O-methylated (all 2'-O-methyl, 5' {P}, 3' {P}, backbone not given here)	95	79	76	(+6 days)
Hep(YW): heptamer-type sgRNA 5′-GCAUGCG-3′, phosphorylated at the 5′ and 3′ ends, 2′-O-methylated (all 2'-O-methyl, 5' {P}, 3' {P}, backbone not given here)	96	59	0	–
